Source: the Kinase Knowledgebase extract (Sharma et al. 2016)

The molecules below were run against PIK3CA (human) (UniProt P42336) (assay: Inhibition of PIK3CA Kinase Activity).
Sequence of PIK3CA (human) (P42336 whole entry, looked up): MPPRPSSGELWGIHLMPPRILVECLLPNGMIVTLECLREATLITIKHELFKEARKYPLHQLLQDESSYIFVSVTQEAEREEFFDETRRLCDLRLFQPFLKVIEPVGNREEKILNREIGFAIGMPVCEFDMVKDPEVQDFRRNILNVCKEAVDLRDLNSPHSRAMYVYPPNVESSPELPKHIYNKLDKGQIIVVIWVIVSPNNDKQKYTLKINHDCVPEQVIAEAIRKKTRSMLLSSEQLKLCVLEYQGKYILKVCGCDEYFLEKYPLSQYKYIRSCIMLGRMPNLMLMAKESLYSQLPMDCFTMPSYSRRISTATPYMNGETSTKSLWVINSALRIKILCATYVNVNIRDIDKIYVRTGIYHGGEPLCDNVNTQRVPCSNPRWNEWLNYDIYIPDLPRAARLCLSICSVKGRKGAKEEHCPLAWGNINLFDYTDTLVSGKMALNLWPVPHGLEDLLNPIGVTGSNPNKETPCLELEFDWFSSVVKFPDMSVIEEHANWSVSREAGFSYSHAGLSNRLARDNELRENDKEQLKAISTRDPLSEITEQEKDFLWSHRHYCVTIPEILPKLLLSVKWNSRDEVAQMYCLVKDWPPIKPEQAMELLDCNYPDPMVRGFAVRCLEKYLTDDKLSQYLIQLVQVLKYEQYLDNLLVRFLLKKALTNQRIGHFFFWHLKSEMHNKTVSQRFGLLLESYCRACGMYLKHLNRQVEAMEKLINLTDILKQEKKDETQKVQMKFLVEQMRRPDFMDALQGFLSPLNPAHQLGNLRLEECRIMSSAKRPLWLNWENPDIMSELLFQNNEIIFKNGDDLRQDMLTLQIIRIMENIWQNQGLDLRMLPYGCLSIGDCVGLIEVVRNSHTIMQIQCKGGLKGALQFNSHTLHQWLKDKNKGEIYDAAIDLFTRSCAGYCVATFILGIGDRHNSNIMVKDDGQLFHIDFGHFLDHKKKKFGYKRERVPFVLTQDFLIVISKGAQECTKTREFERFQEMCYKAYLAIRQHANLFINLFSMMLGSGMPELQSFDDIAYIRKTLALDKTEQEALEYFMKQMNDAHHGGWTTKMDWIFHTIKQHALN
`COc1ccc2c(N3CCOc4ccc(-c5ccc(NC(C)=O)cc5)cc4C3)nc(C)nc2c1` showed an IC50 of 250 to 1000 nM. `COc1cc2c(N3CCOc4ccc(-c5ccc6nc(C)[nH]c6c5)cc4C3)ncnc2c(OC)c1OC` gave an IC50 of 50 to 250 nM. Molecule `Cc1ncnc(N2CCOc3ccc(-c4cnc5nc(N)cn5c4)cc3C2)c1Cc1ccc(F)cc1` has an IC50 of 50 to 250 nM. `CC[C@H]1CCc2c(ncnc2N2CCOc3ccc(-c4cnc5nc([C@@H](C)N)[nH]c5c4)cc3C2)C1` gave an IC50 of 50 to 250 nM. In the case of `Cc1nc(N2CCOc3ccc(-c4ccc(N)nc4)cc3C2)c2ccccc2n1`, the IC50 is reported as 250 to 1000 nM. Molecule `COc1ccc2c(N3CCOc4ccc(-c5cnc6sc(N)nc6c5)cc4C3)nc(CN(C)C)nc2c1` has an IC50 of no more than 10 nM. Work on `Cc1nc2ncc(-c3ccc4c(c3)CN(c3nc(CN[C@@H](C)C(=O)O)nc5c3CC(C)(C)CC5)CCO4)cc2[nH]1` yielded an IC50 of no more than 10 nM. Work on `COCc1nc2c(c(N3CCOc4ccc(-c5cnc6[nH]c(C)nc6c5)cc4C3)n1)CC(C)(C)CC2` yielded an IC50 of 10 to 50 nM. For `CCNc1nc2ccc(-c3ccc4c(c3)CN(c3ncnc(Nc5ccccc5)c3C)CCO4)cc2[nH]1`, the IC50 was 10 to 50 nM. Molecule `CCc1c(C)nc(CN(C)C)nc1N1CCOc2ccc(-c3cnc4[nH]c(C)nc4c3)cc2C1` has an IC50 of no more than 10 nM. `CC1=Cc2ncnc(N3CCOc4ccc(-c5cnc(N)c(S(=O)(=O)N6CC[C@@H](N)C6)c5)cc4C3)c2CC1(C)C` showed an IC50 of 10 to 50 nM. Work on `Cc1nc2cc(-c3ccc4c(c3)CN(c3nc(CN(C)C)nc5c3CC(C)(C)CC5)CCO4)c(F)cc2[nH]1` yielded an IC50 of 50 to 250 nM. In the case of `Cc1nc2ccc(-c3ccc4c(c3)CN(c3cc(-c5ccccc5)nc5ccccc35)CCO4)cc2[nH]1`, the IC50 is reported as 50 to 250 nM. For `COc1c(OCc2ccc3ccccc3n2)ccc2c(N3CCOc4ccc(-c5ccc6nc(C)[nH]c6c5)cc4C3)ncnc12`, the IC50 was 250 to 1000 nM. `Cc1nc2ccc(-c3ccc4c(c3)CN(c3ncnc(C)c3Cc3cc(F)cc(F)c3)CCO4)cc2[nH]1` gave an IC50 of 10 to 50 nM. For `C=C[C@H]1CCCc2c(ncnc2N2CCOc3ccc(-c4cnc5nc(C)[nH]c5c4)cc3C2)C1`, the IC50 was 10 to 50 nM. In the case of `COc1ccc(-c2ccc3c(c2)CN(c2nc(CN(C)C)nc4c2CC(C)(C)CC4)CCO3)cc1C(C)=O`, the IC50 is reported as 250 to 1000 nM. `CC(=O)OCc1nc(C)c(C(C)C)c(N2CCOc3ccc(-c4ccc5nc(C)[nH]c5c4)cc3C2)n1` was tested, and the IC50 was 50 to 250 nM. `CCCc1nc2ccc(-c3ccc4c(c3)CN(c3ccnc5ccccc35)CCO4)cc2[nH]1` gave an IC50 of 50 to 250 nM. Molecule `Cc1nc(C)c(Cc2ccc(F)cc2)c(N2CCOc3ccc(-c4ccc5nc(C)[nH]c5c4)cc3C2)n1` has an IC50 of 10 to 50 nM. In the case of `Cc1nc2cc(-c3ccc4c(c3)CN(c3nc(CN5CCCC5)nc5c3CC(C)(C)CC5)CCO4)cnc2[nH]1`, the IC50 is reported as no more than 10 nM. In the case of `CNS(=O)(=O)c1cc(-c2ccc3c(c2)CN(c2ncnc4c2CC(C)(C)CC4)CCO3)cnc1N`, the IC50 is reported as no more than 10 nM. In the case of `COc1cccc(Cc2c(C)ncnc2N2CCOc3ccc(-c4ccc5nc(C)[nH]c5c4)cc3C2)c1`, the IC50 is reported as 10 to 50 nM. With `Cc1nc2ncc(-c3ccc4c(c3)CN(c3ncnc5c3CCC(C(C)O)C5)CCO4)cc2[nH]1` (centres undefined) the IC50 was 10 to 50 nM. With `COCCOCc1nc2c(c(N3CCOc4ccc(-c5ccc6nc(C)[nH]c6c5)cc4C3)n1)CC(C)(C)CC2` the IC50 was 50 to 250 nM. `CC1(C)CCc2ncnc(N3CCOc4ccc(-c5cnc(N)c(S(=O)(=O)NC[C@@H]6CCCN6)c5)cc4C3)c2C1` gave an IC50 of 50 to 250 nM. For `Cc1nc2ccc(-c3ccc4c(c3)CN(c3cc(C(F)(F)F)nc5ccccc35)CCO4)cc2[nH]1`, the IC50 was 50 to 250 nM. With `COC(=O)Nc1nc2ncc(-c3ccc4c(c3)CN(c3ncnc5c3CC(C)(C)CC5)CCO4)cc2[nH]1` the IC50 was no more than 10 nM. `Cc1nc2ncc(-c3ccc4c(c3)CN(c3nc(CNC(C)(C)C)nc5c3CC(C)(C)CC5)CCO4)cc2[nH]1` was tested, and the IC50 was 10 to 50 nM. Molecule `CC1(C)CCc2ncnc(N3CCOc4ccc(-c5cncc(NS(C)(=O)=O)c5)cc4C3)c2C1` has an IC50 of 50 to 250 nM. `Cc1nc2ncc(-c3ccc4c(c3)CN(c3nc(CN5CC[C@H](F)C5)nc5c3CC(C)(C)CC5)CCO4)cc2[nH]1` showed an IC50 of 10 to 50 nM. Work on `Cc1nc2ncc(-c3ccc4c(c3)CN(c3nc(CO)nc5c3CC(C)(C)CC5)CCO4)cc2[nH]1` yielded an IC50 of 10 to 50 nM. Molecule `Cc1nc2ncc(-c3ccc4c(c3)CN(c3nc(CN5CCCCC5)nc5c3CC(C)(C)CC5)CCO4)cc2[nH]1` has an IC50 of no more than 10 nM. `CCNc1nc2ncc(-c3ccc4c(c3)CN(c3nc(C)nc5c3CC(C)(C)CC5)CCO4)cc2[nH]1` was tested, and the IC50 was no more than 10 nM. With `Cc1nc2ncc(-c3ccc4c(c3)CN(c3nc(CNC5CCCC5)nc5c3CC(C)(C)CC5)CCO4)cc2[nH]1` the IC50 was 10 to 50 nM. Work on `CC1(C)CCc2ncnc(N3CCOc4ccc(-c5cnc(N)c(S(=O)(=O)N[C@H]6CCNC6)c5)cc4C3)c2C1` yielded an IC50 of 10 to 50 nM. `CN1CCC[C@H](CNS(=O)(=O)c2cc(-c3ccc4c(c3)CN(c3ncnc5c3CC(C)(C)CC5)CCO4)cnc2N)C1` was tested, and the IC50 was 50 to 250 nM. In the case of `CC1(C)CCc2ncnc(N3CCOc4ccc(-c5cnc6nccnc6c5)cc4C3)c2C1`, the IC50 is reported as 250 to 1000 nM. `COC(=O)Nc1nc2ccc(-c3ccc4c(c3)CN(c3ccncn3)CCO4)cc2[nH]1` showed an IC50 of 250 to 1000 nM. Work on `COc1ccc(-c2ccc3c(c2)CN(c2nc(CN(C)C)nc4c2CC(C)(C)CC4)CCO3)cc1OC` yielded an IC50 of 10 to 50 nM. For `CNCCN(C)c1ncnc(N2CCOc3ccc(-c4cnc5nc(C6CC6)[nH]c5c4)cc3C2)c1C`, the IC50 was 250 to 1000 nM. With `CC1(C)CCc2ncnc(N3CCOc4ccc(-c5cnc(N)c(S(=O)(=O)NC[C@H]6CCCNC6)c5)cc4C3)c2C1` the IC50 was 50 to 250 nM. Molecule `CC1(C)CCc2ncnc(N3CCOc4ccc(-c5cnc(Cl)c(NS(C)(=O)=O)c5)cc4C3)c2C1` has an IC50 of no more than 10 nM. Work on `Cc1nc2cc(-c3ccc4c(c3)CN(c3nc(CN(C)C)nc(C)c3Cc3ccc(F)cc3)CCO4)ccc2[nH]1` yielded an IC50 of no more than 10 nM. `COc1ccc2c(N3CCOc4ccc(-c5cnc6nc(C)[nH]c6c5)cc4C3)nc(CN(C)C)nc2c1` gave an IC50 of no more than 10 nM. `CNCc1nc2c(c(N3CCOc4ccc(-c5cnc6nc(C)[nH]c6c5)cc4C3)n1)CC(C)(C)CC2` gave an IC50 of no more than 10 nM. In the case of `COc1ncc(-c2ccc3c(c2)CN(c2ncnc4c2CC(C)(C)CC4)CCO3)cc1NS(C)(=O)=O`, the IC50 is reported as no more than 10 nM. `CCNc1nc2ncc(-c3ccc4c(c3)CN(c3ccncn3)CCO4)cc2[nH]1` showed an IC50 of 50 to 250 nM. For `Cc1nc2ncc(-c3ccc4c(c3)CN(c3nc(CNCC(C)C)nc5c3CC(C)(C)CC5)CCO4)cc2[nH]1`, the IC50 was 10 to 50 nM. `CCc1nc2ncc(-c3ccc4c(c3)CN(c3nc(C)nc5c3CC(C)(C)CC5)CCO4)cc2[nH]1` was tested, and the IC50 was 10 to 50 nM. `CNC(=O)c1ccc(-c2ccc3c(c2)CN(c2ncnc(C)c2Cc2ccc(F)cc2)CCO3)cc1` gave an IC50 of 10 to 50 nM. In the case of `CC1(C)CCc2ncnc(N3CCOc4ccc(-c5cnc6c(c5)S(=O)(=O)NC(=O)N6)cc4C3)c2C1`, the IC50 is reported as 50 to 250 nM. Molecule `Cc1nc(CN(C)C)nc(N2CCOc3ccc(-c4cnc5sc(N)nc5c4)cc3C2)c1-c1ccccc1` has an IC50 of 10 to 50 nM. Molecule `CC1(C)CCc2ncnc(N3CCOc4ccc(-c5cnc6nc[nH]c6c5)cc4C3)c2C1` has an IC50 of 10 to 50 nM. Work on `Cc1nc2c(c(N3CCOc4ccc(-c5cnc6sc(N)nc6c5)cc4C3)n1)CC(C)(C)CC2` yielded an IC50 of 10 to 50 nM. Molecule `CCNc1nc2ccc(-c3ccc4c(c3)CN(c3nc(C)nc5cc(OC)ccc35)CCO4)cc2[nH]1` has an IC50 of no more than 10 nM. `Cc1nc2ccc(-c3ccc4c(c3)CN(c3nc(CN(C)C)nc5c3CC(C)(C)CC5)CCO4)cc2[nH]1` gave an IC50 of no more than 10 nM. For `COc1ccc2c(N3CCOc4ccc(-c5ccc(N)cc5)cc4C3)nc(C)nc2c1`, the IC50 was 250 to 1000 nM. `Cc1nc(CN(C)C)nc(N2CCOc3ccc(-c4cnc5sc(N)nc5c4)cc3C2)c1CC(C)C` showed an IC50 of 50 to 250 nM. `Cc1nc2ccc(-c3ccc4c(c3)CN(c3nc(C(C)(C)O)nc5c3CC(C)(C)CC5)CCO4)cc2[nH]1` gave an IC50 of 50 to 250 nM. Work on `CCNc1nc2ccc(-c3ccc4c(c3)CN(c3cc(Nc5ccccc5)ncn3)CCO4)cc2[nH]1` yielded an IC50 of 50 to 250 nM. Molecule `CCCc1c(C)nc(CN(C)C)nc1N1CCOc2ccc(-c3ccc4nc(C)[nH]c4c3)cc2C1` has an IC50 of 10 to 50 nM. `COc1ccc2c(N3CCOc4ccc(-c5cnc6sc(NC(C)=O)nc6c5)cc4C3)nc(CN(C)C)nc2c1` gave an IC50 of 10 to 50 nM. With `Cc1nc(N)sc1-c1ccc2c(c1)CN(c1ncnc3c1CCC(C)(C)C3)CCO2` the IC50 was 50 to 250 nM.
